# Laboratory results as given in patent US20110250135A1, “Piperazine Derivatives for Binding and Imaging Amyloid Plaques and Their Use” (Bayer Schering Pharma Aktiengesellschaft, priority 2008, published 2011).
# Assays:
# [1] = Biodistribution: organ distribution of F-18 signal in mice; format: in vivo, male NMRI mice; details: for Organ distribution of F-18 signal, intestine: intestine (with content); for Organ distribution of F-18 signal, stomach: stomach (without content)
# Summary of the method: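 Male NMRI mice (~30 g, 3 per time point) received ca. 150 kBq of the test compound i.v. via tail vein. At 2, 5, 30, 60 and 240 min, urine and feces were collected and organs and tissues taken for gamma counting. Values are decay-corrected % ID/g ± SD.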
# Aβ plaques = target: T1, Aβ plaques (Homo sapiens, UniProt P05067); assay: Autoradiographical analysis of binding to cryosections from cortex of AD patients and controls; details: F-18 labeled compound; Alzheimer's disease patients (AD) vs controls without Aβ plaques
# T1 construct: controls without Aβ plaques; from tissue; host or cells: frontal lobe / cortex sections (frozen and paraffin) from AD patients, FTD patients and age-matched controls
# Summary of the method: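 Frozen (18 μm) and deparaffinized paraffin (6 μm) frontal-lobe sections from Alzheimer's, frontotemporal dementia and age-matched control brains were incubated 1.5 h at room temperature with F-18 test compound at 10 Bq/μl in 25 mM Hepes pH 7.4, 0.1% BSA. Blocking used 1000-fold excess unlabeled compound; phosphoimager readout.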
# T1 sequence (P05067 672-713 limits assumed): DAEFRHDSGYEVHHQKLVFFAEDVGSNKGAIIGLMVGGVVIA
structure (smiles),measurement,setting,value
"O=C(NCC(=O)N1CCN(c2ccc(OCc3ccccc3)cn2)CC1)c1ccnc([18F])c1 [Example 14f, [^18F]-N-(2-{4-[5-(benzyloxy)pyridin-2-yl]piperazin-1-yl}-2-oxoethyl)-2-fluoropyridine-4carboxamide]","Organ distribution of F-18 signal, adrenals",[1]; 2 min post i.v. injection,16.31 % ID/g
same,"Organ distribution of F-18 signal, adrenals",[1]; 5 min post i.v. injection,6.14 % ID/g
same,"Organ distribution of F-18 signal, adrenals",[1]; 30 min post i.v. injection,1.57 % ID/g
same,"Organ distribution of F-18 signal, adrenals",[1]; 60 min post i.v. injection,1.35 % ID/g
same,"Organ distribution of F-18 signal, adrenals",[1]; 240 min post i.v. injection,0.23 % ID/g
same,"Organ distribution of F-18 signal, blood",[1]; 2 min post i.v. injection,2.05 % ID/g
same,"Organ distribution of F-18 signal, blood",[1]; 5 min post i.v. injection,2.36 % ID/g
same,"Organ distribution of F-18 signal, blood",[1]; 30 min post i.v. injection,1.30 % ID/g
same,"Organ distribution of F-18 signal, blood",[1]; 60 min post i.v. injection,0.33 % ID/g
same,"Organ distribution of F-18 signal, blood",[1]; 240 min post i.v. injection,0.08 % ID/g
same,"Organ distribution of F-18 signal, brain",[1]; 2 min post i.v. injection,3.87 % ID/g
same,"Organ distribution of F-18 signal, brain",[1]; 5 min post i.v. injection,3.14 % ID/g
same,"Organ distribution of F-18 signal, brain",[1]; 30 min post i.v. injection,0.52 % ID/g
same,"Organ distribution of F-18 signal, brain",[1]; 60 min post i.v. injection,0.13 % ID/g
same,"Organ distribution of F-18 signal, brain",[1]; 240 min post i.v. injection,0.02 % ID/g
same,"Organ distribution of F-18 signal, fat",[1]; 2 min post i.v. injection,1.05 % ID/g
same,"Organ distribution of F-18 signal, fat",[1]; 5 min post i.v. injection,2.17 % ID/g
same,"Organ distribution of F-18 signal, fat",[1]; 30 min post i.v. injection,1.02 % ID/g
same,"Organ distribution of F-18 signal, fat",[1]; 60 min post i.v. injection,0.59 % ID/g
same,"Organ distribution of F-18 signal, fat",[1]; 240 min post i.v. injection,0.02 % ID/g
same,"Organ distribution of F-18 signal, femur",[1]; 2 min post i.v. injection,1.44 % ID/g
same,"Organ distribution of F-18 signal, femur",[1]; 5 min post i.v. injection,1.38 % ID/g
same,"Organ distribution of F-18 signal, femur",[1]; 30 min post i.v. injection,0.55 % ID/g
same,"Organ distribution of F-18 signal, femur",[1]; 60 min post i.v. injection,0.24 % ID/g
same,"Organ distribution of F-18 signal, femur",[1]; 240 min post i.v. injection,0.13 % ID/g
same,"Organ distribution of F-18 signal, heart",[1]; 2 min post i.v. injection,3.67 % ID/g
same,"Organ distribution of F-18 signal, heart",[1]; 5 min post i.v. injection,3.81 % ID/g
same,"Organ distribution of F-18 signal, heart",[1]; 30 min post i.v. injection,0.93 % ID/g
same,"Organ distribution of F-18 signal, heart",[1]; 60 min post i.v. injection,0.20 % ID/g
same,"Organ distribution of F-18 signal, heart",[1]; 240 min post i.v. injection,0.06 % ID/g
same,"Organ distribution of F-18 signal, intestine",[1]; 2 min post i.v. injection,2.27 % ID/g
same,"Organ distribution of F-18 signal, intestine",[1]; 5 min post i.v. injection,2.90 % ID/g
same,"Organ distribution of F-18 signal, intestine",[1]; 30 min post i.v. injection,11.37 % ID/g
same,"Organ distribution of F-18 signal, intestine",[1]; 60 min post i.v. injection,13.11 % ID/g
same,"Organ distribution of F-18 signal, intestine",[1]; 240 min post i.v. injection,13.53 % ID/g
same,"Organ distribution of F-18 signal, kidney",[1]; 2 min post i.v. injection,7.60 % ID/g
same,"Organ distribution of F-18 signal, kidney",[1]; 5 min post i.v. injection,8.59 % ID/g
same,"Organ distribution of F-18 signal, kidney",[1]; 30 min post i.v. injection,7.84 % ID/g
same,"Organ distribution of F-18 signal, kidney",[1]; 60 min post i.v. injection,2.86 % ID/g
same,"Organ distribution of F-18 signal, kidney",[1]; 240 min post i.v. injection,0.79 % ID/g
same,"Organ distribution of F-18 signal, liver",[1]; 2 min post i.v. injection,8.19 % ID/g
same,"Organ distribution of F-18 signal, liver",[1]; 5 min post i.v. injection,13.46 % ID/g
same,"Organ distribution of F-18 signal, liver",[1]; 30 min post i.v. injection,5.20 % ID/g
same,"Organ distribution of F-18 signal, liver",[1]; 60 min post i.v. injection,1.87 % ID/g
same,"Organ distribution of F-18 signal, liver",[1]; 240 min post i.v. injection,0.90 % ID/g
same,"Organ distribution of F-18 signal, lung",[1]; 2 min post i.v. injection,3.63 % ID/g
same,"Organ distribution of F-18 signal, lung",[1]; 5 min post i.v. injection,3.93 % ID/g
same,"Organ distribution of F-18 signal, lung",[1]; 30 min post i.v. injection,1.27 % ID/g
same,"Organ distribution of F-18 signal, lung",[1]; 60 min post i.v. injection,0.42 % ID/g
same,"Organ distribution of F-18 signal, lung",[1]; 240 min post i.v. injection,0.12 % ID/g
same,"Organ distribution of F-18 signal, muscle",[1]; 2 min post i.v. injection,1.94 % ID/g
same,"Organ distribution of F-18 signal, muscle",[1]; 5 min post i.v. injection,2.14 % ID/g
same,"Organ distribution of F-18 signal, muscle",[1]; 30 min post i.v. injection,0.62 % ID/g
same,"Organ distribution of F-18 signal, muscle",[1]; 60 min post i.v. injection,0.26 % ID/g
same,"Organ distribution of F-18 signal, muscle",[1]; 240 min post i.v. injection,0.03 % ID/g
same,"Organ distribution of F-18 signal, pancreas",[1]; 2 min post i.v. injection,4.49 % ID/g
same,"Organ distribution of F-18 signal, pancreas",[1]; 5 min post i.v. injection,4.49 % ID/g
same,"Organ distribution of F-18 signal, pancreas",[1]; 30 min post i.v. injection,1.64 % ID/g
same,"Organ distribution of F-18 signal, pancreas",[1]; 60 min post i.v. injection,0.32 % ID/g
same,"Organ distribution of F-18 signal, pancreas",[1]; 240 min post i.v. injection,0.11 % ID/g
same,"Organ distribution of F-18 signal, skin",[1]; 2 min post i.v. injection,1.12 % ID/g
same,"Organ distribution of F-18 signal, skin",[1]; 5 min post i.v. injection,1.84 % ID/g
same,"Organ distribution of F-18 signal, skin",[1]; 30 min post i.v. injection,1.17 % ID/g
same,"Organ distribution of F-18 signal, skin",[1]; 60 min post i.v. injection,0.43 % ID/g
same,"Organ distribution of F-18 signal, skin",[1]; 240 min post i.v. injection,0.06 % ID/g
same,"Organ distribution of F-18 signal, spleen",[1]; 2 min post i.v. injection,1.67 % ID/g
same,"Organ distribution of F-18 signal, spleen",[1]; 5 min post i.v. injection,2.25 % ID/g
same,"Organ distribution of F-18 signal, spleen",[1]; 30 min post i.v. injection,0.78 % ID/g
same,"Organ distribution of F-18 signal, spleen",[1]; 60 min post i.v. injection,0.12 % ID/g
same,"Organ distribution of F-18 signal, spleen",[1]; 240 min post i.v. injection,0.04 % ID/g
same,"Organ distribution of F-18 signal, stomach",[1]; 2 min post i.v. injection,3.81 % ID/g
same,"Organ distribution of F-18 signal, stomach",[1]; 5 min post i.v. injection,3.68 % ID/g
same,"Organ distribution of F-18 signal, stomach",[1]; 30 min post i.v. injection,2.88 % ID/g
same,"Organ distribution of F-18 signal, stomach",[1]; 60 min post i.v. injection,2.07 % ID/g
same,"Organ distribution of F-18 signal, stomach",[1]; 240 min post i.v. injection,0.46 % ID/g
same,"Organ distribution of F-18 signal, tail",[1]; 2 min post i.v. injection,5.14 % ID/g
same,"Organ distribution of F-18 signal, tail",[1]; 5 min post i.v. injection,4.06 % ID/g
same,"Organ distribution of F-18 signal, tail",[1]; 30 min post i.v. injection,2.28 % ID/g
same,"Organ distribution of F-18 signal, tail",[1]; 60 min post i.v. injection,0.67 % ID/g
same,"Organ distribution of F-18 signal, tail",[1]; 240 min post i.v. injection,0.31 % ID/g
same,"Organ distribution of F-18 signal, testicle",[1]; 2 min post i.v. injection,1.42 % ID/g
same,"Organ distribution of F-18 signal, testicle",[1]; 5 min post i.v. injection,1.73 % ID/g
same,"Organ distribution of F-18 signal, testicle",[1]; 30 min post i.v. injection,0.79 % ID/g
same,"Organ distribution of F-18 signal, testicle",[1]; 60 min post i.v. injection,0.27 % ID/g
same,"Organ distribution of F-18 signal, testicle",[1]; 240 min post i.v. injection,0.04 % ID/g
same,"Organ distribution of F-18 signal, thyroid",[1]; 2 min post i.v. injection,3.00 % ID/g
same,"Organ distribution of F-18 signal, thyroid",[1]; 5 min post i.v. injection,2.94 % ID/g
same,"Organ distribution of F-18 signal, thyroid",[1]; 30 min post i.v. injection,0.94 % ID/g
same,"Organ distribution of F-18 signal, thyroid",[1]; 60 min post i.v. injection,0.30 % ID/g
same,"Organ distribution of F-18 signal, thyroid",[1]; 240 min post i.v. injection,0.16 % ID/g
same,autoradiographical analysis of binding to cryosections from cortex,Aβ plaques,Specific binding in plaque-rich regions of AD samples
